Test results as given in patent US20240116985A1, “STAPLED PEPTIDES AND METHODS THEREOF” (priority 2020, published 2024).
Values after ≈ are worked out from the molar mass of the structure shown. Read-outs that look alike come from different tables or passages of the source.

Experiments:
CHI Log D procedure = format: physicochemical
Solubility in PBS = format: physicochemical
Procedure, shortened: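 Steps: ultracentrifuge the peptide PBS solution, inject the supernatant on HPLC, inject a 50 μM peptide DMSO solution as reference, then calculate solubility as area ratio (PBS/DMSO) × 50 uM.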

[1] = target: T1, beta-catenin/TCF4 engagement (Homo sapiens, UniProt P35222); test: Nano-BRET target engagement assay (B-cat-Halo & TCF4-Luc in HEK293 cells); format: cell-based; conditions: for inhibition at 10 µM: read-out: NanoBRET % inh @ 10 uM
T1 construct: expressed in transfected cells; host or cells: HEK293
T1 sequence (P35222 1-781): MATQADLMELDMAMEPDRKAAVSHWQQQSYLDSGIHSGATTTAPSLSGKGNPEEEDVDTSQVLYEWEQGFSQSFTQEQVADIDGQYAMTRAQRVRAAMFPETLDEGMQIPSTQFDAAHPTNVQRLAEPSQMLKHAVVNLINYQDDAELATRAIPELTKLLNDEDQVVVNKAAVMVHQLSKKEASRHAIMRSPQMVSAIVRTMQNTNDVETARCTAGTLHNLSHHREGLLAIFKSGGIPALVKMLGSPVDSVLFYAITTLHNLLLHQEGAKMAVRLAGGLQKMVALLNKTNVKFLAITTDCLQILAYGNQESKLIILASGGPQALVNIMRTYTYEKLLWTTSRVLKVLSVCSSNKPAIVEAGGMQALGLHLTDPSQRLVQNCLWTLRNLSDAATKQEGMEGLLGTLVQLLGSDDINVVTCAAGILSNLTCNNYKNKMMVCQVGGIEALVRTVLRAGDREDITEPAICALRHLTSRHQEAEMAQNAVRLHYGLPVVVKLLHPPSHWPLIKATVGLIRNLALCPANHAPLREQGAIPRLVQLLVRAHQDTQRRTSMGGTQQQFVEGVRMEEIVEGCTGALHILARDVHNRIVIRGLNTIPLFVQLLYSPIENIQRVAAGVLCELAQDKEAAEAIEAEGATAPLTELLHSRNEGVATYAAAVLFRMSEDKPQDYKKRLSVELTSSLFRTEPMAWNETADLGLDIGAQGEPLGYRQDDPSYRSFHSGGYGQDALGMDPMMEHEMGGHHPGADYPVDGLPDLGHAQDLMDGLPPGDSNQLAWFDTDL

[2] = target: T2, full-length beta-Catenin (Uniprot ID P35222) (Homo sapiens, UniProt P35222); test: Fluorescence polarization IC50 (beta-catenin / 5FAM-TCF4 10-53 competition); format: binding; conditions: fluorescence polarization
T2 construct: 10 nM full-length beta-Catenin (Uniprot ID P35222)
T2 sequence (P35222 1-781): T1 sequence (P35222 1-781)

[3] = beta-catenin, read-out: FP EC50

| CHI Log D (CHI Log D procedure; pH 7.4) | Solubility (Solubility in PBS) [µM] | inhibition at 10 µM ([1]; HEK293, 10 uM) [%] | IC50 ([2]; read-out: beta-Catenin FP IC50) [nM] | chromatographic logD (CHI Log D procedure; pH 7.4, CHI Log D) | inhibition at 10 µM ([1]; HEK293, @ 10 uM) [%] | Solubility (Solubility in PBS; Solubility (uM)) [µM] | IC50 [2, 3] [nM] | Compound | chromatographic logD (CHI Log D procedure; pH 7.4) | IC50 ([1]; NanoBRET Abs IC50 (uM), absolute IC50) [µM] |
| --- | --- | --- | --- | --- | --- | --- | --- | --- | --- | --- |
| 1.852 | 46 (≈ 76.6 µg/mL) | -5.3 | – | – | – | – | – | CC(=O)N1CCC[C@]12CC=CCCCC1(CCCC=CCCCCCC[C@@](C)(C(=O)N[C@@H](Cc3ccccc3)C(=O)N[C@@H](C)C(=O)N[C@@H](CCC(N)=O)C(N)=O)NC(=O)[C@H](C(C)C)NC(=O)[C@H](Cc3ccccc3)NC(=O)[C@H](C)NC(=O)[C@H](C)NC(=O)[C@H](CC(=O)O)NC(=O)[C@H](CC(=O)O)NC1=O)NC(=O)[C@H](C)NC(=O)[C@H](CC(=O)O)NC2=O (stereo partly drawn) [I-357, Ac-PL3-Asp-Ala-B5-Asp-Asp-Ala-Ala-Phe-Val-S8-Phe-Ala-Gln-NH2] | – | – |
| – | 50 (≈ 94.2 µg/mL) | – | 30 | 2.39 | 55.1 | – | – | CC[C@H](C)[C@@H]1NC(=O)[C@H](CC(=O)O)NC(=O)[C@]2(CC=CCCCC3(CCCC=CCCCCCC[C@@](C)(C(=O)N[C@@H](Cc4ccccc4)C(=O)N[C@@H](Cc4csc5ccccc45)C(=O)N[C@@H](CCC(N)=O)C(N)=O)NC(=O)[C@H](CCC(N)=O)NC(=O)[C@H](Cc4ccccc4)NC(=O)[C@H](C)NC(=O)[C@H](C)NC(=O)[C@H](CCC(=O)O)NC(=O)[C@H](CC(=O)O)NC3=O)NC1=O)CCCN2C(C)=O (stereo partly drawn) [I-407, Ac-PL3-Asp-Ile-B5-Asp-Glu-Ala-Ala-Phe-Gln-S8-Phe-BztA-Gln-NH2] | – | – |
| – | – | – | 61 | 1.88 | – | 45 (≈ 86.9 µg/mL) | – | CC(=O)N1CCC[C@]12CC=CCCCC1(CCCC=CCCCOC(=O)N3CC[C@@](C(=O)N[C@@H](Cc4ccsc4)C(=O)N[C@@H](Cc4csc5ccccc45)C(=O)N[C@@H](CCC(N)=O)C(N)=O)(C3)NC(=O)[C@H](CC(N)=O)NC(=O)[C@H](Cc3ccccc3)NC(=O)[C@H](C)NC(=O)[C@H](C)NC(=O)[C@H](CC(=O)O)NC(=O)[C@H](CC(=O)O)NC1=O)NC(=O)[C@H](CC(C)(C)C)NC(=O)C[C@H](CC(=O)O)NC2=O (stereo partly drawn) [I-1159, Ac-PL3-RbGlu-Npg-B5-Asp-Asp-Ala-Ala-Phe-Asn-PyrS2-3Thi-BztA-Gln-NH2] | – | – |
| 2.059 | 48 (≈ 90.7 µg/mL) | – | 691 | – | – | – | 691 | CC(=O)N1CCC[C@]12CC=CCCCC1(CCCC=CCCCCCC[C@@](C)(C(=O)N[C@@H](Cc3ccsc3)C(=O)N[C@@H](Cc3csc4ccccc34)C(=O)N[C@@H](CCC(N)=O)C(N)=O)NC(=O)[C@H](CC(N)=O)NC(=O)[C@H](Cc3ccccc3)NC(=O)[C@H](C)NC(=O)[C@H](C)NC(=O)[C@H](CC(=O)O)NC(=O)[C@H](CC(=O)O)NC1=O)NC(=O)[C@H](CC(C)(C)C)NC(=O)C[C@H](CC(=O)O)NC2=O (stereo partly drawn) [I-1163, Ac-PL3-RbGlu-Npg-B5-Asp-Asp-Ala-Ala-Phe-Asn-S8-3Thi-BztA-Gln-NH2] | – | – |
| 2.13 | 50 (≈ 94.5 µg/mL) | – | 162 | – | – | – | 162 | CC(=O)N1CCC[C@]12CC=CCCCC1(CCCC=CCCCCCC[C@@](C)(C(=O)N[C@@H](Cc3ccsc3)C(=O)N[C@@H](Cc3csc4ccccc34)C(=O)N[C@@H](CCC(N)=O)C(N)=O)NC(=O)[C@H](CC(N)=O)NC(=O)[C@H](Cc3ccccc3)NC(=O)[C@H](C)NC(=O)[C@H](C)NC(=O)[C@H](CC(=O)O)NC(=O)[C@H](CC(=O)O)NC1=O)NC(=O)[C@H](CC(C)(C)C)NC(=O)C[C@H](CC(=O)O)NC2=O (stereo partly drawn) [I-1164, Ac-PL3-RbGlu-Npg-B5-Asp-Asp-Ala-Ala-Phe-Asn-S8-3Thi-BztA-Gln-NH2] | – | – |

| Compound | CHI Log D (CHI Log D procedure; pH 7.4) | Solubility (Solubility in PBS) [µM] | inhibition at 10 µM ([1]; HEK293, 10 uM) [%] | IC50 ([2]; read-out: beta-Catenin FP IC50) [nM] | chromatographic logD (CHI Log D procedure; pH 7.4, CHI Log D) | inhibition at 10 µM ([1]; HEK293, @ 10 uM) [%] | Solubility (Solubility in PBS; Solubility (uM)) [µM] | IC50 [2, 3] [nM] | chromatographic logD (CHI Log D procedure; pH 7.4) | IC50 ([1]; NanoBRET Abs IC50 (uM), absolute IC50) [µM] |
| --- | --- | --- | --- | --- | --- | --- | --- | --- | --- | --- |
| C[C@@H]1NC(=O)[C@H](C)NC(=O)[C@H](CN(CC(=O)O)CC(F)(F)F)NC(=O)[C@H](CC(=O)O)NC(=O)C2(CCCC=CCCCOC(=O)N3CC[C@@](C(=O)N[C@@H](Cc4ccsc4)C(=O)N[C@@H](Cc4csc5ccccc45)C(=O)N[C@@H](CCC(N)=O)C(N)=O)(C3)NC(=O)[C@H](CC(N)=O)NC(=O)[C@H](Cc3ccccc3)NC1=O)CCCC=CC[C@]1(CCCN1C(=O)CN=[N+]=[N-])C(=O)N[C@@H](CC(=O)O)C(=O)N[C@@H](CC(C)(C)C)C(=O)N2 (stereo partly drawn) [I-1054, AzAc-PL3-Asp-Npg-B5-Asp-TfeGA-Ala-Ala-Phe-Asn-PyrS2-3Thi-BztA-Gln-NH2] | – | 46 (≈ 95.2 µg/mL) | – | – | – | – | – | – | 2.19 | > 20 |
